In patent publication US20110190269A1, “GAMMA SECRETASE MODULATORS” (priority 2010, published 2011):

The molecules below were run on γ-secretase (assay: Cellular γ-secretase assay (inhibition of Aβ42 secretion)). Conditions: human neuroglioma H4 cells overexpressing human APP, 22 hrs incubation.
Format: cell-based
Protocol: Human neuroglioma H4 cells overexpressing human APP were plated at 30,000 cells/well/[…] in 96-well plates in IMDM media containing 10% FCS, […] Hygromycin B and incubated for 2 h at 37° C., 5% CO2 prior to adding test compounds.
Compounds for testing were dissolved in 100% Me2SO yielding in a 10 mM stock solution. Typically […] of these solutions were further diluted in 1000 μl of IMDM media (w/o FCS). Subsequent 1:1 dilutions gave a ten point dose response curve. 100 μl of each dilution was added to the cells in 96-well plates. Appropriate controls using vehicle only and reference compound were applied to this assay. The final concentration of Me2S0 was 0.4%.
After incubation for 22 hrs at 37° C., 5% CO2, 50 μl supernatant was transferred into round-bottom 96-well polypropylene plates for detection of Aβ42. 50 μl assay buffer (50 mM Tris/Cl, pH 7.4, 60 mM NaCl, 0.5% BSA, 1% TWEEN 20) was added to the wells followed by the addition of 100 μl of detection antibody (ruthenylated BAP15 0.0625 μg/ml in assay buffer). 50 μl of a premix of capture antibody (biotinylated 6E10 antibody, 1 μg/ml) and Steptavidin-coated magnetic beads (Dynal M-280, 0.125 mg/ml) were preincubated for 1 hr at room temperature before adding the assay plates. Assay plates were incubated on a shaker for 3 hrs at room temperature and finally read in the Bioveris M8 Analyser according to the manufacturer's instructions (Bioveris).
IC50 values for inhibition of Aβ42 secretion were calculated by nonlinear regression fit analysis using XLfit 4.0 software (IDBS).

Row | EC50 | SMILES
1 | 0.069 µM | COc1cc(Nc2nc3c(-c4ccc(Cl)cc4)cc(C)c(C(C)(C)O)n3n2)ccc1-n1cnc(C)c1 [Example 144, 2-{8-(4-Chloro-phenyl)-2-[3-methoxy-4-(4-methyl-imidazol-1-yl)-phenylamino]-6-methyl-[1,2,4]triazolo[1,5-a]pyridin-5-yl}-propan-2-ol]
2 | 0.32 µM | COc1cc(Nc2nc3n(n2)C(c2ccc(F)cc2)CCC3)ccc1-n1cnc(C)c1 (centres unmarked) [Example 2, [5-(4-Fluoro-phenyl)-5,6,7,8-tetrahydro-[1,2,4]triazolo[1,5-a]pyridin-2-yl]-[3-methoxy-4-(4-methyl-imidazol-1-yl)-phenyl]-amine]
3 | 0.039 µM | COc1cc(Nc2nc3c(-c4ccc(Cl)cc4)cccn3n2)ccc1-c1ccnc(C)c1 [Example 127, [8-(4-Chloro-phenyl)-[1,2,4]triazolo[1,5-a]pyridin-2-yl]-[3-methoxy-4-(2-methyl-pyridin-4-yl)-phenyl]-amine]
4 | 0.93 µM | COc1cc(Nc2nc3c(OC)cccn3n2)ccc1-n1cnc(C)c1 [Example 7, [3-Methoxy-4-(4-methyl-imidazol-1-yl)-phenyl]-(8-methoxy-[1,2,4]triazolo[1,5-a]pyridin-2-yl)-amine]
5 | 0.022 µM | COc1cc(Nc2nc3c(-c4ccc(F)c(F)c4)cc(Cl)cn3n2)ccc1-n1cnc(C)c1 [Example 81, 6-Chloro-8-(3,4-difluorophenyl)-N-(3-methoxy-4-(4-methyl-1H-imidazol-1-yl)phenyl)-[1,2,4]triazolo[1,5-a]pyridin-2-amine]
6 | 0.01 µM | COc1cc(Nc2nc3c(-c4ccc(F)c(Cl)c4)cc(C)cn3n2)ccc1-n1cnc(C)c1 [Example 62, [8-(3-Chloro-4-fluoro-phenyl)-6-methyl-[1,2,4]triazolo[1,5-a]pyridin-2-yl]-[3-methoxy-4-(4-methyl-imidazol-1-yl)-phenyl]-amine]
7 | 0.679 µM | COc1cc(Nc2nc3cc(C)cc(C)n3n2)ccc1-n1cnc(C)c1 [Example 14, (5,7-Dimethyl-[1,2,4]triazolo[1,5-a]pyridin-2-yl)-[3-methoxy-4-(4-methyl-imidazol-1-yl)-phenyl]-amine]
8 | 0.31 µM | COc1cc(Nc2nc3c(-c4ccc(Cl)cc4C=O)cc(C)cn3n2)ccc1-n1cnc(C)c1 [Example 91, 5-Chloro-2-(2-(3-methoxy-4-(4-methyl-1H-imidazol-1-yl)phenylamino)-6-methyl-[1,2,4]triazolo[1,5-a]pyridin-8-yl)benzaldehyde]
9 | 0.145 µM | COc1cc(Nc2nc3ncc(C#N)c(-c4ccc(Cl)cc4)n3n2)ccc1-n1cnc(C)c1 [Example 39, 7-(4-Chloro-phenyl)-2-[3-methoxy-4-(4-methyl-imidazol-1-yl)-phenylamino]-[1,2,4]triazolo[1,5-a]pyrimidine-6-carbonitrile]
10 | 0.065 µM | COc1cc(Nc2nc3c(-c4ccc(Cl)cc4)cc(C4CC4)cn3n2)ccc1-n1cnc(C)c1 [Example 117, [8-(4-Chloro-phenyl)-6-cyclopropyl-[1,2,4]triazolo[1,5-a]pyridin-2-yl]-[3-methoxy-4-(4-methyl-imidazol-1-yl)-phenyl]-amine]
11 | 0.2 µM | COc1cc(Nc2nc3cncc(-c4ccc(F)cc4)n3n2)ccc1-n1cnc(C)c1 [Example 9, [5-(4-Fluoro-phenyl)-[1,2,4]triazolo[1,5-a]pyrazin-2-yl]-[3-methoxy-4-(4-methyl-imidazol-1-yl)-phenyl]-amine]
12 | 0.573 µM | COc1cc(Nc2nc3nccc(-c4ccc(C(F)(F)F)cc4)n3n2)ccc1-n1cnc(C)c1 [Example 36, [3-Methoxy-4-(4-methyl-imidazol-1-yl)-phenyl]-[7-(4-trifluoromethyl-phenyl)-[1,2,4]triazolo[1,5-a]pyrimidin-2-yl]-amine]
13 | 1.4 µM | COc1cc(Nc2nc3ccnc(-c4ccc(F)cc4)n3n2)ccc1-n1cnc(C)c1 [Example 45, [5-(4-Fluoro-phenyl)-[1,2,4]triazolo[1,5-c]pyrimidin-2-yl]-[3-methoxy-4-(4-methyl-imidazol-1-yl)-phenyl]-amine]
14 | 0.587 µM | COc1cc(Nc2nc3cccc(N4CCCCCC4)n3n2)ccc1-n1cnc(C)c1 [Example 31, (5-Azepan-1-yl-[1,2,4]triazolo[1,5-a]pyridin-2-yl)-[3-methoxy-4-(4-methyl-imidazol-1-yl)-phenyl]-amine]
15 | 0.076 µM | COc1cc(Nc2nc3c(-c4ccc(F)cc4Cl)ccc(C(C)(C)O)n3n2)ccc1-n1cnc(C)c1 [Example 121, 2-{8-(2-Chloro-4-fluoro-phenyl)-2-[3-methoxy-4-(4-methyl-imidazol-1-yl)-phenylamino]-[1,2,4]triazolo[1,5-a]pyridin-5-yl}-propan-2-ol]
16 | 0.046 µM | COc1cc(Nc2nc3c(-c4ccc(F)cc4Cl)cccn3n2)cc(F)c1-n1cnc(C)c1 [Example 112, 8-(2-chloro-4-fluorophenyl)-N-(3-fluoro-5-methoxy-4-(4-methyl-1H-imidazol-1-yl)phenyl)-[1,2,4]triazolo[1,5-a]pyridin-2-amine]
17 | 0.027 µM | COc1cc(Nc2nc3c(-c4ccc(F)c(C#N)c4)cc(C)cn3n2)ccc1-n1cnc(C)c1 [Example 78, 2-Fluoro-5-(2-(3-methoxy-4-(4-methyl-1H-imidazol-1-yl)phenylamino)-6-methyl-[1,2,4]triazolo[1,5-a]pyridin-8-yl)benzonitrile]
18 | 0.59 µM | COc1cc(Nc2nc3n(n2)CCN(C(=O)C(C)C)C3c2ccc(F)cc2)ccc1-n1cnc(C)c1 (centres unmarked) [Example 59, 1-(8-(4-Fluorophenyl)-2-(3-methoxy-4-(4-methyl-1H-imidazol-1-yl)phenylamino)-5,6-dihydro-[1,2,4]triazolo[1,5-a]pyrazin-7(8H)-yl)-2-methylpropan-1-one]
19 | 0.05 µM | COc1cc(Nc2nc3cccc(-c4ccc(F)cc4)n3n2)ccc1-n1cnc(C)c1 [Example 8, [5-(4-Fluoro-phenyl)-[1,2,4]triazolo[1,5-a]pyridin-2-yl]-[3-methoxy-4-(4-methyl-imidazol-1-yl)-phenyl]-amine]
20 | 0.4 µM | COc1cc(Nc2nc3cccc(N4CCCC4)n3n2)ccc1-n1cnc(C)c1 [Example 12, [3-Methoxy-4-(4-methyl-imidazol-1-yl)-phenyl]-(5-pyrrolidin-1-yl-[1,2,4]triazolo[1,5-a]pyridin-2-yl)-amine]
21 | 0.227 µM | COc1cc(Nc2nc3c(N4CCOCC4)cccn3n2)ccc1-n1cnc(C)c1 [Example 101, N-(3-Methoxy-4-(4-methyl-1H-imidazol-1-yl)phenyl)-8-morpholino-[1,2,4]triazolo[1,5-a]pyridin-2-amine]
22 | 5.93 µM | COc1cc(Nc2nc3nccc(-c4ccc(C#N)cc4)n3n2)ccc1-n1cnc(C)c1 [Example 35, 4-{2-[3-Methoxy-4-(4-methyl-imidazol-1-yl)-phenylamino]-[1,2,4]triazolo[1,5-a]pyrimidin-7-yl}-benzonitrile]
23 | 0.266 µM | COc1cc(Nc2nc3c(Oc4cccc(Cl)c4)cccn3n2)ccc1-n1cnc(C)c1 [Example 137, 8-(3-chlorophenoxy)-N-(3-methoxy-4-(4-methyl-1H-imidazol-1-yl)phenyl)-[1,2,4]triazolo[1,5-a]pyridin-2-amine]
24 | 0.093 µM | COc1cc(Nc2nc3c(C4=CCN(C(=O)OC(C)(C)C)CC4)cc(C)cn3n2)ccc1-n1cnc(C)c1 [Example 96, tert-Butyl 4-(2-(3-methoxy-4-(4-methyl-1H-imidazol-1-yl)phenylamino)-6-methyl-[1,2,4]triazolo[1,5-a]pyridin-8-yl)-5,6-dihydropyridine-1(2H)-carboxylate]
25 | 0.538 µM | COc1cc(Nc2nc3n(n2)C(c2ccc(F)cc2)CN(CC(F)(F)F)C3)ccc1-n1cnc(C)c1 (centres unmarked) [Example 58, 5-(4-fluorophenyl)-N-(3-methoxy-4-(4-methyl-1H-imidazol-1-yl)phenyl)-7-(2,2,2-trifluoroethyl)-5,6,7,8-tetrahydro-[1,2,4]triazolo[1,5-a]pyrazin-2-amine]
26 | 0.027 µM | COc1cc(Nc2nc3c(-c4ccc(F)c(F)c4)ccc(C(C)(C)O)n3n2)ccc1-n1cnc(C)c1 [Example 145, 2-{8-(3,4-Difluoro-phenyl)-2-[3-methoxy-4-(4-methyl-imidazol-1-yl)-phenylamino]-[1,2,4]triazolo[1,5-a]pyridin-5-yl}-propan-2-ol]
27 | 0.029 µM | COc1cc(Nc2nc3c(-c4ccc(F)c(Cl)c4)ccc(C(C)(C)O)n3n2)ccc1-n1cnc(C)c1 [Example 123, 2-{8-(3-Chloro-4-fluoro-phenyl)-2-[3-methoxy-4-(4-methyl-imidazol-1-yl)-phenylamino]-[1,2,4]triazolo[1,5-a]pyridin-5-yl}-propan-2-ol]
28 | 0.045 µM | COc1cc(Nc2nc3c(-c4ccc(F)cc4Cl)cccn3n2)ccc1-c1ccnc(C)c1 [Example 133, [8-(2-Chloro-4-fluoro-phenyl)-[1,2,4]triazolo[1,5-a]pyridin-2-yl]-[3-methoxy-4-(2-methyl-pyridin-4-yl)-phenyl]-amine]
29 | 0.029 µM | Cc1cn(-c2c(F)cc(Nc3nc4c(-c5ccc(F)cc5Cl)cccn4n3)cc2F)cn1 [Example 111, 8-(2-chloro-4-fluorophenyl)-N-(3,5-difluoro-4-(4-methyl-1H-imidazol-1-yl)phenyl)-[1,2,4]triazolo[1,5-a]pyridin-2-amine]
